According to PubChem BioAssay AID588689 (Southern Research Specialized Biocontainment Screening …, 2011):
pIC50: −log10 of the molar value.

Target: Genome polyprotein (Dengue virus type 2 (strain 16681-PDK53)) (UniProt P29991)
Assay: flavivirus cap methylation enzyme inhibition – biochemical, confirmation dose response, primary screen (AID 588689)
Conditions: Dengue-2 NS5 methyltransferase capping enzyme assay

Chain of Genome polyprotein (Dengue virus type 2 (strain 16681-PDK53)) (P29991 whole entry, looked up): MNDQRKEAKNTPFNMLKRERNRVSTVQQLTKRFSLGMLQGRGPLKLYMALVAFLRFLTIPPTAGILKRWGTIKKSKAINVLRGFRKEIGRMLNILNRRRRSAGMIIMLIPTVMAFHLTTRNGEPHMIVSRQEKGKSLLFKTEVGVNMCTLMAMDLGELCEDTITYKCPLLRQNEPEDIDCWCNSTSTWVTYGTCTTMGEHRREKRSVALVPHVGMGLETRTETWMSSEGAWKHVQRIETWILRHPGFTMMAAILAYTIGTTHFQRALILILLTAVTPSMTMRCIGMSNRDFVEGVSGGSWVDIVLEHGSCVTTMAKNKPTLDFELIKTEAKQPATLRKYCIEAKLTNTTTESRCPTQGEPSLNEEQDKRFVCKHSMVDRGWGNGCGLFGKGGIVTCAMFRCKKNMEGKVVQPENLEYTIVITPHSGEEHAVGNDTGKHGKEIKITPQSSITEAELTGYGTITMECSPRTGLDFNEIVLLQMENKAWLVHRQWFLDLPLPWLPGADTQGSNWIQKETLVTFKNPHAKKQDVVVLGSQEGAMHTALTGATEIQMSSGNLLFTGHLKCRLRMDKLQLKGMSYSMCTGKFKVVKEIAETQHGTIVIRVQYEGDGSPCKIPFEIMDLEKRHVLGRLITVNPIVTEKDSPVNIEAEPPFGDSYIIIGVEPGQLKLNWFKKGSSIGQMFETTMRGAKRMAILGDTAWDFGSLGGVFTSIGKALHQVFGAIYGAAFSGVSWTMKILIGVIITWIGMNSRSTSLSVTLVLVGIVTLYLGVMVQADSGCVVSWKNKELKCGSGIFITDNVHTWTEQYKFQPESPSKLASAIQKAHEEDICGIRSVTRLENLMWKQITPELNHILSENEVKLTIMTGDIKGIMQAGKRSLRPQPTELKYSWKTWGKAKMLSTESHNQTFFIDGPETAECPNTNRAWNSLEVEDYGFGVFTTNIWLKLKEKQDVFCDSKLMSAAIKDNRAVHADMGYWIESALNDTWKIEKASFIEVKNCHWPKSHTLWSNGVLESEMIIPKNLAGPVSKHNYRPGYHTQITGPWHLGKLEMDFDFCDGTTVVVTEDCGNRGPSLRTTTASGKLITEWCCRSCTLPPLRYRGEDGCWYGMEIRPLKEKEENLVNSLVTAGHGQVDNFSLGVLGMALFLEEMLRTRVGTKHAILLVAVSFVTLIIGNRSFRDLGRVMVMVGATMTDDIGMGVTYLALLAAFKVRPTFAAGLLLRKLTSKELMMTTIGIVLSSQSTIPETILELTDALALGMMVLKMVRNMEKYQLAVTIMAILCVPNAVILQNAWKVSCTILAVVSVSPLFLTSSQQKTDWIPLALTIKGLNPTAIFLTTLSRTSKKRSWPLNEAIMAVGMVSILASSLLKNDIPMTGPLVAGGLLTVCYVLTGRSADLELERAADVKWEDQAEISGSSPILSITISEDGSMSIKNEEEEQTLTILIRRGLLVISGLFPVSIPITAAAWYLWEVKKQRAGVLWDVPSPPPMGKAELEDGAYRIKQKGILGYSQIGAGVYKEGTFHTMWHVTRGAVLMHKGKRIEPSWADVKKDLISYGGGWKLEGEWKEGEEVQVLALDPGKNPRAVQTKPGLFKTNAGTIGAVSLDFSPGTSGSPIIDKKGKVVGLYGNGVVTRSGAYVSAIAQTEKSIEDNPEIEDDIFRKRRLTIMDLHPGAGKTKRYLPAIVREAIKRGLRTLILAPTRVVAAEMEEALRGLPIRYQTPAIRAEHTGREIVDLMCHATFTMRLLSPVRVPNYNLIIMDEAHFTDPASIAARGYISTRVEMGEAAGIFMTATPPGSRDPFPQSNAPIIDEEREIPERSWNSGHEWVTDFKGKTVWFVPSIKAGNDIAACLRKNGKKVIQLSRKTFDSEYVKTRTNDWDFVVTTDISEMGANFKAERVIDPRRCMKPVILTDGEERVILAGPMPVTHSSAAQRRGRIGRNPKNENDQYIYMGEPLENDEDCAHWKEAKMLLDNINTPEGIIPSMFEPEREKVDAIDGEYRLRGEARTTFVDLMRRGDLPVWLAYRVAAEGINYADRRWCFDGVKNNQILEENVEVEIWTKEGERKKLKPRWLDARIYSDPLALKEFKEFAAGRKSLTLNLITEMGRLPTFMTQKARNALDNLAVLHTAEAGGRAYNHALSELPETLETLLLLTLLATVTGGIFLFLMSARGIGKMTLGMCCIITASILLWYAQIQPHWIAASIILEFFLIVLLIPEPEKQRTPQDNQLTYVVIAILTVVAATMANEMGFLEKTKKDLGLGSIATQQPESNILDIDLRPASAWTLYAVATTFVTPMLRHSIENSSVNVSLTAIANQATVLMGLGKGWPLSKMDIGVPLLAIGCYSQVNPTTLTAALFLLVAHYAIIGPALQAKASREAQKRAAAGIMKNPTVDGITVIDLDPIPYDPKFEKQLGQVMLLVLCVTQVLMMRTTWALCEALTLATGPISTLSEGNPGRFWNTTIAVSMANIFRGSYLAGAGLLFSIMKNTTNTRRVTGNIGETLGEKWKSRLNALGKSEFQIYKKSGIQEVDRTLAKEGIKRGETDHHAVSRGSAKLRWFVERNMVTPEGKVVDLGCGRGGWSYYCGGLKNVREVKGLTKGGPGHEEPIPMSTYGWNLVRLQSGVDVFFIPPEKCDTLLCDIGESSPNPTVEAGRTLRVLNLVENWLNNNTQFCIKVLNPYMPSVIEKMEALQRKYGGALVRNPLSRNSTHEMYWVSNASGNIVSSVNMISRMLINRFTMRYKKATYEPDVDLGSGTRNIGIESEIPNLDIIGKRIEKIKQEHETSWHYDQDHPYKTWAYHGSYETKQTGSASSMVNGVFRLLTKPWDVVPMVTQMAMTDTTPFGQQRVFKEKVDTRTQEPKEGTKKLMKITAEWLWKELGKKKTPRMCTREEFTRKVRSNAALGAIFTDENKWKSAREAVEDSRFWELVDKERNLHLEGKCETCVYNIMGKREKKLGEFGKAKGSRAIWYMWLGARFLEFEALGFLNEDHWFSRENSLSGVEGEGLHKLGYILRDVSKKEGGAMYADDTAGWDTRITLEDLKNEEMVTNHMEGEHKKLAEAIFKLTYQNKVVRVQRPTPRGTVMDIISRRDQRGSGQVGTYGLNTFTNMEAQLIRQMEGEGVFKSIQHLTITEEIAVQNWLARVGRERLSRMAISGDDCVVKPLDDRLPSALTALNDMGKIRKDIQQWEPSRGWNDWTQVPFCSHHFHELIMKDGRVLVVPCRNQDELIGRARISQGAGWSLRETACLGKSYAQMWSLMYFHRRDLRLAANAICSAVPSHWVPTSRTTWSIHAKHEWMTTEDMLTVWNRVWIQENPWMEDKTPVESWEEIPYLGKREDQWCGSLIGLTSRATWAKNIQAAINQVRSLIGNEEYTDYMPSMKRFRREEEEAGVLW

Row | pIC50 | Structure (SMILES)
1 | 4.86 | CCCCC1(C)OC(=O)C(=Cc2ccc(-c3ccc(Cl)c(C(=O)O)c3)o2)C(=O)O1 (configuration not stated)
2 | 4.46 | C=Cc1c(C)c2cc3[nH]c(cc4nc(cc5nc(cc1[nH]2)C(C)=C5CCC(=O)O)C(CCC(=O)O)=C4C)c(C)c3C=C
